Legend:
Format in all cases: cell-based
[1] = test system: Influenza B
[2] = test system: PR8 4C [A30T] M2 mutant amantadine resistant influenza A virus
[3] = test system: SHIV-1M2 (ion channel sequence of influenza A M2)

| SMILES | Comments [1] | EC50 [2] | EC90 [2] | Virus released into the culture supernatant as measured by viral p27 protein [3] | Shift in drug sensitivity caused by the A30T mutation in M2 [2] |
| --- | --- | --- | --- | --- | --- |
| Cn1cc(-c2cccc3cc(C(=O)NC(=N)N)ccc23)cn1 [BIT225, N-carbamimidoyl-5-(1-methyl-1H-pyrazol-4-yl)-2-naphthamide] | Active | ~10 µM | 18 µM | reduced virus released |  |
| NC12CC3CC(CC(C3)C1)C2 [amantadine, reference compound] |  |  |  |  | large shift in drug sensitivity |

Reference: patent US10918623B2, “Methods of treating influenza” (Biotron Limited, priority 2017, dated 2021)
